Measured values published in ChEMBL document CHEMBL1201862, “PubChem BioAssay data set” (2004).
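Compound exposure: 48 hours, 5 concentrations, 96-well plates. GI50 marks 50% less growth.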 Calls of active or inactive are those of the source. Cut-off read from the data, not from the text of the source: active = GI50 up to about 1.1 µM and inactive = higher.

Columns and labels:
Experiment in all cases: NCI anticancer screen, dose series, 48 h
786-0 = test system: 786-0
A498 = test system: A498
A549 = test system: A549
ACHN = test system: ACHN
BT-549 = test system: BT-549
CAKI-1 = test system: CAKI-1
CCRF-CEM = test system: CCRF-CEM
COLO 205 = test system: COLO 205
EKVX = test system: EKVX
HCC 2998 = test system: HCC 2998
HCT-116 = test system: HCT-116
HCT-15 = test system: HCT-15
HL-60 = test system: HL-60
HT-29 = test system: HT-29
Hs-578T = test system: Hs-578T
IGROV-1 = test system: IGROV-1
K562 = test system: K562
LOX IMVI = test system: LOX IMVI
M14 = test system: M14
MDA-MB-435 = test system: MDA-MB-435
MDA-N = test system: MDA-N
MOLT-4 = test system: MOLT-4
NCI-H23 = test system: NCI-H23
NCI/ADR-RES = test system: NCI/ADR-RES
OVCAR-5 = test system: OVCAR-5
OVCAR-8 = test system: OVCAR-8
PC-3 = test system: PC-3
RPMI-8226 = test system: RPMI-8226
RXF 393 = test system: RXF 393
SF-268 = test system: SF-268
SF-539 = test system: SF-539
SK-MEL-28 = test system: SK-MEL-28
SK-MEL-2 = test system: SK-MEL-2
SK-MEL-5 = test system: SK-MEL-5
SK-OV-3 = test system: SK-OV-3
SN12C = test system: SN12C
SNB-19 = test system: SNB-19
SNB-75 = test system: SNB-75
SR = test system: SR
SW-620 = test system: SW-620
T47D = test system: T47D
TK-10 = test system: TK-10
U-251 = test system: U-251
UACC-257 = test system: UACC-257
UO-31 = test system: UO-31
DU-145 = test system: DU-145
HOP-62 = test system: HOP-62
HOP-92 = test system: HOP-92
KM12 = test system: KM12
MCF7 = test system: MCF7
Malme-3M = test system: Malme-3M
NCI-H460 = test system: NCI-H460
NCI-H522 = test system: NCI-H522
OVCAR-3 = test system: OVCAR-3
OVCAR-4 = test system: OVCAR-4
SF-295 = test system: SF-295
UACC-62 = test system: UACC-62

Compound: CCOC(=O)C(NC(=O)CC)(Nc1ccc(F)cc1F)C(F)(F)F (stereo not drawn)
- GI50 (786-0): > 100 µM (inactive)
- GI50 (A498): > 100 µM (inactive)
- GI50 (A549): > 100 µM (inactive)
- GI50 (ACHN): > 100 µM (inactive)
- GI50 (BT-549): > 100 µM (inactive)
- GI50 (CAKI-1): 1.31 µM (inactive)
- GI50 (CCRF-CEM): > 100 µM (inactive)
- GI50 (COLO 205): > 100 µM (inactive)
- GI50 (EKVX): > 100 µM (inactive)
- GI50 (HCC 2998): > 100 µM (inactive)
- GI50 (HCT-116): > 100 µM (inactive)
- GI50 (HCT-15): > 100 µM
- GI50 (HL-60): 34 µM (inactive)
- GI50 (HT-29): > 100 µM (inactive)
- GI50 (Hs-578T): 18.2 µM (inactive)
- GI50 (IGROV-1): > 100 µM (inactive)
- GI50 (K562): 60.4 µM (inactive)
- GI50 (LOX IMVI): > 100 µM (inactive)
- GI50 (M14): > 100 µM (inactive)
- GI50 (MDA-MB-435): 40.7 µM (inactive)
- GI50 (MDA-N): 31.9 µM (inactive)
- GI50 (MOLT-4): > 100 µM (inactive)
- GI50 (NCI-H23): > 100 µM (inactive)
- GI50 (NCI/ADR-RES): > 100 µM (inactive)
- GI50 (OVCAR-5): > 100 µM (inactive)
- GI50 (OVCAR-8): > 100 µM (inactive)
- GI50 (PC-3): > 100 µM (inactive)
- GI50 (RPMI-8226): > 100 µM (inactive)
- GI50 (RXF 393): > 100 µM (inactive)
- GI50 (SF-268): > 100 µM (inactive)
- GI50 (SF-539): > 100 µM (inactive)
- GI50 (SK-MEL-28): > 100 µM (inactive)
- GI50 (SK-MEL-2): > 100 µM (inactive)
- GI50 (SK-MEL-5): > 100 µM (inactive)
- GI50 (SK-OV-3): > 100 µM (inactive)
- GI50 (SN12C): > 100 µM (inactive)
- GI50 (SNB-19): > 100 µM (inactive)
- GI50 (SNB-75): 83 µM (inactive)
- GI50 (SR): > 100 µM (inactive)
- GI50 (SW-620): 85.7 µM (inactive)
- GI50 (T47D): > 100 µM (inactive)
- GI50 (TK-10): > 100 µM (inactive)
- GI50 (U-251): > 100 µM (inactive)
- GI50 (UACC-257): > 100 µM (inactive)
- GI50 (UO-31): 11.8 µM (inactive)

Compound: CCOC(=O)C1(C(=O)OCC)CN(CC)CN(c2ccccc2)C1
- GI50 (786-0): 19.8 µM (inactive)
- GI50 (A498): > 100 µM (inactive)
- GI50 (A549): 22.2 µM (inactive)
- GI50 (ACHN): 19.9 µM (inactive)
- GI50 (BT-549): 20.8 µM (inactive)
- GI50 (CAKI-1): 17.8 µM (inactive)
- GI50 (CCRF-CEM): 16.2 µM (inactive)
- GI50 (COLO 205): 18.2 µM (inactive)
- GI50 (DU-145): 30 µM (inactive)
- GI50 (EKVX): 17.6 µM (inactive)
- GI50 (HCC 2998): 15.4 µM (inactive)
- GI50 (HCT-116): 48.3 µM (inactive)
- GI50 (HCT-15): 16 µM
- GI50 (HL-60): 22.2 µM (inactive)
- GI50 (HOP-62): 21.1 µM (inactive)
- GI50 (HOP-92): 16.5 µM (inactive)
- GI50 (HT-29): 17.8 µM (inactive)
- GI50 (Hs-578T): > 100 µM (inactive)
- GI50 (IGROV-1): 19.6 µM (inactive)
- GI50 (K562): 39.4 µM (inactive)
- GI50 (KM12): > 100 µM (inactive)
- GI50 (LOX IMVI): 91.2 µM (inactive)
- GI50 (M14): 19.1 µM (inactive)
- GI50 (MCF7): 18.5 µM (inactive)
- GI50 (MDA-MB-435): 19.1 µM (inactive)
- GI50 (MDA-N): 35.6 µM (inactive)
- GI50 (MOLT-4): 18.3 µM (inactive)
- GI50 (Malme-3M): 38.3 µM (inactive)
- GI50 (NCI-H23): 18.4 µM (inactive)
- GI50 (NCI-H460): 35.4 µM (inactive)
- GI50 (NCI-H522): 29.3 µM (inactive)
- GI50 (NCI/ADR-RES): 45.6 µM (inactive)
- GI50 (OVCAR-3): 18.5 µM (inactive)
- GI50 (OVCAR-4): 25.1 µM (inactive)
- GI50 (OVCAR-5): 19.2 µM (inactive)
- GI50 (OVCAR-8): 21.5 µM (inactive)
- GI50 (RPMI-8226): 18.2 µM (inactive)
- GI50 (RXF 393): 17.1 µM (inactive)
- GI50 (SF-268): 69.2 µM (inactive)
- GI50 (SF-295): > 100 µM (inactive)
- GI50 (SF-539): 21.5 µM (inactive)
- GI50 (SK-MEL-28): 18.7 µM (inactive)
- GI50 (SK-MEL-5): 34.8 µM (inactive)
- GI50 (SK-OV-3): > 100 µM (inactive)
- GI50 (SN12C): 37.1 µM (inactive)
- GI50 (SNB-19): > 100 µM (inactive)
- GI50 (SNB-75): 19.4 µM (inactive)
- GI50 (SR): 21 µM (inactive)
- GI50 (SW-620): 30.6 µM (inactive)
- GI50 (TK-10): 19 µM (inactive)
- GI50 (UACC-257): 17.2 µM (inactive)
- GI50 (UACC-62): 26.5 µM (inactive)
- GI50 (UO-31): 28 µM (inactive)
